Experimental data taken from patent publication US20200352950A1, “Novel method of treating dystonia” (KOREA ADVANCED INSTITUTE OF SCIENCE AND TECHNOLOGY, priority 2017, published 2020).
Entries after “also recorded” stand apart in the source; their conditions may differ.

How the values were obtained:
5-HT2A receptor = 5-HT2A receptor (Homo sapiens, UniProt P28223); conditions: cited from earlier work
[1] = test system: CACNA1Atot/tot mice (tottering mice); assay: Stress-induced dystonia in tottering mice in open field box (attack event number, dystonia score); type: in vivo; conditions: for degree of relaxation of dystonia (number of dystonia events, dystonia score): FIGS. 3B, 3C, i.p., MDL100907 1 or 2 mg/kg, pimavanserin 1.5 mg/kg, ritanserin 2 mg/kg, glemanserin 2 mg/kg, nelotanserin 1 mg/kg, compared to the control group; for dystonia symptoms, dose-dependent effect: FIG. 3A
[2] = test system: calcium ion concentration in the cerebellum; assay: Real-time GCaMP6 fluorescence measurement of calcium ion concentration in the cerebellum of tottering mice; type: in vivo; conditions: FIG. 4E; stress environment
Experimental: In order to analyze the correlation between the degree of dystonia symptoms and the concentration of calcium ions in neurons, optogenetic model animals were prepared. Particularly, for a photometric system with a polarization-maintaining single-mode optical fiber, AAV2/9-CAG-FLEX-GCaMP6m (zadmehr et al., Cell, 164: 617-631, 2016) and AAV2/9-CMV-Cre (Gompf et al., Front. Behav. Neurosci. 9: 152, 2015) viral vectors were injected unilaterally into 0.25 μl each of the fastigial nucleus of the CACNA1A^tot/tot mouse through stereotaxic surgery. The virus injection was carried out 4 weeks before the experiment. […] For the fluorescence measurement, a TCSPC-based light measurement system (Becker & Hickel, Germany) was used.
The change in calcium signaling in the cerebellum is possible by transduction of a gene encoding the calcium sensor protein GCaMP6 into the cerebellum of the dystonia model mouse, and then measuring the intensity of fluorescence of the GCaMP6 protein bound to calcium ions. […] The present inventors performed real-time fluorescence analysis to analyze the correlation between dystonia symptoms and calcium ion concentration in nerve tissues in the topical transduction tottering mice prepared in Example 2. […] After the pulse laser irradiation, 509 nm wavelength fluorescence was measured using a TCSPC-based optical measurement system (Becker & Hickl, Germany). […]

[3] = test system: CACNA1Atot/tot mice (tottering mice); assay: EMG cross correlation between tibialis anterior and gastrocnemius muscles of tottering mice; type: in vivo; conditions: FIG. 1G; stressed environment; compared to control group
Excerpt: Electrodes (A-M system, USA) were surgically inserted into the gastrocnemius (GS) and tibialis anterior (TA) muscle for EMG recording, respectively. The electrodes were made using multiple strands of stainless-steel wires attached to each other and coated with Teflon. After shaving the hair of the right hind leg and behind the neck, a small incision was formed in the skin of the dorsal neck area. Four sets of recording electrodes were connected from the neck incision to the muscles under the skin. The EMG wires were wired under the skin and connected to a connector fixed to the skull. The low impedance of the exposed end of the wires allows the capture of electrical signals that have passed through relatively long distances (Pearson et al., J. Neurosci. Methods, 148 (1): 36-42, 2005). The EMG signals from the electrodes were sampled at 10 kHz and digitized with MiniDigi 1A (Axon Instrument, USA). Raw traces were analyzed using Clampfit 9.2 (Axon Instrument, USA). The cross correlation was calculated by using the standard of NeuroExplorer (Ver. 4, Nex Technologies, USA). […] The cross correlation indicates the degree of EMG overlap for a certain period in two muscles (TA and GS), and is a measure for judging whether the dystonia symptoms occur simultaneously in two muscles. […] That is, the greater the cross correlation value (Cross Corr.), which is the Y-axis value when the signal between each other is 0 ms (when contracted at the same time), the more severe the dystonia symptoms that the two muscles contract at the same time. The unit of the Y axis, AU, is a relative cross correlation value when the control is set to 1 which is an arbitrary unit.

[4] = test system: CACNA1Atot/tot mice (tottering mice); assay: Stress-induced dystonia in tottering mice in open field box (attack event number, dystonia score); type: in vivo; conditions: FIG. 1F; i.p. 30 min before test; Way100135 10 mg/kg, MDL100907 1 mg/kg, ondansetron 1 mg/kg; open field box 30 min
Experimental: The 7-8 weeks old CACNA1Atot/tot mice (Fletcher, Cell, 87 (4): 607-617, 1996, The Jackson Laboratory, Stock No: 000544) were selected kept and dealt complied with the regulation (protocol number KA2015-05) of Institutional Animal Care and Use Committee of the Korea Advanced Institute of Science and Technology (KAIST). The mice remained freely accessible to water and feed, and the light-dark cycle was 12/12 hours. Behavioral tests were performed 4 weeks after the viral transduction. […]
The drugs were dissolved in physiological saline and administrated […] to the tottering animal prepared by the Examples 2 and kept in the controlled environment of 12/12 hour light-dark cycle. […] The behavior test was performed 30 minutes after drug administration, and the experimental animals were acclimated in the home for 30 minutes and moved to an open field box, they were exposed to a stressed environment by leaving them in the open field box for 30 min, and the symptoms of dystonia were measured. The symptoms of dystonia and its severity were calculated using a 5-point scale dystonia score as follows: 0=normal behavior, 1=abnormal motor behavior, no myotonic posture, 2=minor dyskinesia, showing dystonia-like psture when disturbed, 3=moderate motor disability, frequent spontaneous myotonic posture, 4=severe motor disability, and persistent myotonic posture.

5-HT2A receptor, sequence (P28223 whole entry): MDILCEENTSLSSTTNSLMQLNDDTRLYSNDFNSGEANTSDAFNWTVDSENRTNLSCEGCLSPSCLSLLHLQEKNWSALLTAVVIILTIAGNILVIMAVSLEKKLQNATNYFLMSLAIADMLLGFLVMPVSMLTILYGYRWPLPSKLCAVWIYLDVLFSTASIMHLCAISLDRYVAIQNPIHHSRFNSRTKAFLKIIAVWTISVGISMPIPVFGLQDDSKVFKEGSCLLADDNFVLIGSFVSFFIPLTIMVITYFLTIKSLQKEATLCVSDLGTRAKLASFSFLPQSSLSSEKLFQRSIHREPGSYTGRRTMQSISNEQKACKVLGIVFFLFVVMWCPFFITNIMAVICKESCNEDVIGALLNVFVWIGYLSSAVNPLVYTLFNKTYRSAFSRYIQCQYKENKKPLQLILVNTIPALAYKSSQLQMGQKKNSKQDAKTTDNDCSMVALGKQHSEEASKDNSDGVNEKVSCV

SMILES | Ki (5-HT2A receptor; 5-HT2A receptor) | degree of relaxation of dystonia (number of dystonia events, dystonia score) [1] | EMG cross correlation (TA and GS muscles) [3] | further results
COc1ccc(CC(=O)N(Cc2ccc(C)cc2)C2CCN(C)CC2)cc1 [AC-90179] | 2.1 ± 0.2 nM |  |  | 
OC(c1ccccc1)C1CCN(CCc2ccccc2)CC1 (stereo not shown) [Glemanserin] |  | showed no significant effect |  | IC50 (5-HT2A receptor): 6.5 ± 2 nM
OCCOCCN1CCN(C(c2ccccc2)c2ccc(Cl)cc2)CC1 (stereo not shown) [Hydroxyzine] |  |  |  | IC50 (5-HT2A receptor): 170 nM
COc1ccc(NC(=O)Nc2ccc(F)cc2F)cc1-c1c(Br)cnn1C [Nelotanserin] | 0.4 ± 0.07 nM | showed no dystonia paralysis |  | 
CC(CCN1CCN(c2ccc(F)cc2)CC1)NC(=O)c1cccnc1 (stereo not shown) [Niaprazine] | 75 nM |  |  | pKi (5-HT2A receptor; 5-HT2A receptor): 7.61 ± 0.18
CC(C)COc1ccc(CNC(=O)N(Cc2ccc(F)cc2)C2CCN(C)CC2)cc1 [Pimavanserin] |  | showed no dystonia paralysis; also recorded: reduced symptoms of dystonia compared to Glemanserin |  | 
Cc1nc2sccn2c(=O)c1CCN1CCC(=C(c2ccc(F)cc2)c2ccc(F)cc2)CC1 [Ritanserin] |  | showed no dystonia paralysis |  | 
COc1cccc([C@H](O)C2CCN(CCc3ccc(F)cc3)CC2)c1OC [Volinanserin] |  | showed no dystonia paralysis; also recorded: reduced symptoms of dystonia compared to Glemanserin | the correlation disappeared | increase in GCaMP6 fluorescence signal (ΔF/F) in cerebellum after moving to open field box [2]: reduced to the level when staying at the home; dystonia symptoms, dose-dependent effect ([1]; 0.1 mg/kg): dystonia symptoms were significantly suppressed; dystonia symptoms, dose-dependent effect ([1]; 2 mg/kg rather than 1 mg/kg): symptoms were slightly alleviated
COc1ccccc1N1CCN(CC(C(=O)NC(C)(C)C)c2ccccc2)CC1 (stereo not shown) [Way100135] |  |  | there is no difference | symptoms of dystonia (attack event number and muscle dysfunction index) [4]: did not reduce symptoms of dystonia at all
Cc1nccn1CC1CCc2c(c3ccccc3n2C)C1=O (stereo not shown) [ondansetron] |  |  | there is no difference | symptoms of dystonia (attack event number and muscle dysfunction index) [4]: did not reduce symptoms of dystonia at all
